Where a SMILES comes first, the peptide text is derived from it. Where no end group is shown, it is not given here. The star is where a group is joined. Biotin = O=C1N[C@H]2[C@H](CS[C@H]2CCCCC(=O)*)N1
Assays:
[1] = tested on: HeLa cells; assay: Quantification of peptide internalization: intracellular delivery of streptavidin-peroxidase (OPD); assay type: cell-based, human; conditions: 6 hrs at 37°C, compared with TAT peptide
Method: Before incubation, the peptides were preincubated for 1 h with streptavidin HRP conjugate in a 4/1 ratio. Cells at 80% confluence were incubated with different concentrations of peptide in 24-well plates. After 6 h, cells were washed twice in PBS, trypsinized (Trypsin EDTA, Invitrogen) and harvested in 1 ml of PBS and counted. Cells were lysed in 300 µl of 0.1 M Tris pH 7.4, and 0.5% Nonidet P-40 buffer for 10 min on ice. A total of 50 µl of cell lysate was mixed with 50 µl of OPD buffer (51.4 mM Na2HPO4 and 24.3 mM citric acid) then mixed with 100 µl of OPD solution (one OPD tablet from Sigma (St. Louis MO) in 100 ml of OPD buffer to which 40 µl of 30% hydrogen peroxide was added just before use). After 10 to 20 min, the reaction was stopped by adding 100 µl of 1 M HCl, and optical density was read at 490 nm.

[2] = tested on: PP1c; assay: Pull down assay of biotinylated peptides with PP1c from HeLa cell extracts; assay type: binding, human; conditions: peptide 100 µM on streptavidin magnetic beads, HeLa cell lysate, 2 h 4°C, western blot with PP1 antibodies
Method: Biotinylated peptides were pre-incubated for 2 h at 100 µM (final concentration with lysate) and room temperature with 30 µl of streptavidin-coated immunomagnetic beads (Calbiochem, San Diego CA). During this time, 1×10^6 HeLa cells at 90% of confluence per test peptide were washed with PBS, trypsinized, harvested with PBS, washed with 1 ml of PBS, and centrifuged at 600 g and 4°C for 10 min. Cell pellets were lysed 10 min on ice with 400 µl of lysis buffer (50 mM Tris pH 7.4, 200 mM NaCl, 10 mM EDTA, 20% Glycerol, 1% Nonidet P-40, 1 mM phenylmethylsulfonyl fluoride (PMSF), 10 mM NaF, 1 mM orthovanadate, and “complete mini EDTA free” protease inhibitor cocktail from Roche). Lysates were clarified at 13,000 g for 10 min at 4°C and after rotation with supernatant at 4°C for 2 h, biotinylated peptides were pulled down with streptavidine magnetic beads and washed twice with 750 µl of lysis buffer. Bound proteins and clarified lysates were analyzed by western blotting using PP1 antibodies.

[3] = Apoptotic effect of DPT-APAF peptides (abstract only); assay type: cell-based; conditions: stated in abstract only
[4] = tested on: PP1c; assay: PP1c binding of DPT-APAF peptides (abstract only); conditions: stated in abstract only

Compound: CC[C@H](C)[C@H](NC(=O)[C@@H](NC(=O)CNC(=O)[C@H](CCCCN)NC(=O)CCCC[C@@H]1SC[C@@H]2NC(=O)N[C@@H]21)C(C)C)C(=O)N[C@@H](C)C(=O)N[C@@H](Cc1ccc(O)cc1)C(=O)N[C@@H](CC(C)C)C(=O)N[C@@H](CCCNC(=N)N)C(=O)N[C@@H](CC(=O)O)C(=O)N[C@@H](CCCCN)C(=O)O [DPT-AIF2] (Biotin-KGVIAYLRDK-OH)
- Ability to internalize Streptavidin-HRP conjugated molecules (in words) [1]: not DPT-AIF2

Compound: DPT-AIF4: mutated peptide of 8 accessible residues of AIF564–571 containing the F566A mutation (Biotin-VIAYLRDK)
- Co-precipitation of PP1c with biotinylated peptide [2]: unable to co-precipitate PP1c

Compound: DPT-APAF1: bi-partite cell penetrating peptide containing APAF-1_122–131 linked to DPT-sh1 peptide shuttle (RPVVFVTRKK; also: linked to DPT-sh1 shuttle peptide, junction not given here; UniProt O14727 122-131, looked up, fragment)
- Apoptotic effect [3]: death molecule
- PP1c binding [4]: PP1-interacting

Compound: CC[C@H](C)[C@H](NC(=O)[C@@H](NC(=O)CNC(=O)[C@H](CCCCN)NC(=O)CCCC[C@@H]1SC[C@@H]2NC(=O)N[C@@H]21)C(C)C)C(=O)N[C@@H](Cc1ccccc1)C(=O)N[C@@H](Cc1ccc(O)cc1)C(=O)N[C@@H](CC(C)C)C(=O)N[C@@H](CCCNC(=N)N)C(=O)N[C@@H](CC(=O)O)C(=O)N[C@@H](CCCCN)C(=O)O [DPT-AIF1] (Biotin-KGVIFYLRDK-OH)
- Ability to internalize Streptavidin-HRP conjugated molecules (in words) [1]: able to internalize Streptavidin-HRP conjugated molecules even more efficiently than the well characterized positive control TAT peptide

Reference: PMC2848619, “The Combinatorial PP1-Binding Consensus Motif (R/K)x (0,1)V/IxFxx(R/K)x(R/K) Is a New Apoptotic Signature” (PLoS ONE, 2010)
